Measurements reported in PubChem BioAssay AID720598 (Broad Institute, 2013).

Test system: HT-29 viability, CellTiter-Glo ATP luminescence, 8-48 h
Assay: HT-29 colorectal cell cytotoxicity over time, dose response, HRas target identification project, CellTiter-Glo, multiple timepoints, dry powder (AID 720598)
Settings: measured here: 8 h treatment

SMILES	AC50 [nM]
COC(=O)c1ccc([C@@H]2c3[nH]c4ccccc4c3C[C@@H](C(=O)OC)N2C(=O)CCl)cc1	486
COc1ccc(N(C(=O)CCl)C(C(=O)NCCc2ccccc2)c2cccs2)cc1Cl (stereo unspecified)	729
C#CCCCC(=O)NCCOCCOCCOc1ccc(N(C(=O)CCl)C(C(=O)NCCc2ccccc2)c2cccs2)cc1Cl (stereo unspecified)	11900
Cc1onc(C(=O)N2CCN(C(c3ccc(Cl)cc3)c3ccc(Cl)cc3)CC2)c1[N+](=O)[O-]	2760
CC(C)(C)OC(=O)NCCOCCOCCOc1ccc(N(C(=O)CCl)C(C(=O)NCCc2ccccc2)c2cccs2)cc1Cl (stereo unspecified)	742

Same assay, conditions: measured here: 24 h treatment

SMILES	AC50 [nM]
COC(=O)c1ccc([C@@H]2c3[nH]c4ccccc4c3C[C@@H](C(=O)OC)N2C(=O)CCl)cc1	133
COc1ccc(N(C(=O)CCl)C(C(=O)NCCc2ccccc2)c2cccs2)cc1Cl (stereo unspecified)	103
C#CCCCC(=O)NCCOCCOCCOc1ccc(N(C(=O)CCl)C(C(=O)NCCc2ccccc2)c2cccs2)cc1Cl (stereo unspecified)	1510
Cc1onc(C(=O)N2CCN(C(c3ccc(Cl)cc3)c3ccc(Cl)cc3)CC2)c1[N+](=O)[O-]	594
CC(C)(C)OC(=O)NCCOCCOCCOc1ccc(N(C(=O)CCl)C(C(=O)NCCc2ccccc2)c2cccs2)cc1Cl (stereo unspecified)	448

Same assay, conditions: measured here: 48 h treatment

SMILES	AC50 [nM]
COC(=O)c1ccc([C@@H]2c3[nH]c4ccccc4c3C[C@@H](C(=O)OC)N2C(=O)CCl)cc1	85.6
COc1ccc(N(C(=O)CCl)C(C(=O)NCCc2ccccc2)c2cccs2)cc1Cl (stereo unspecified)	56.1
C#CCCCC(=O)NCCOCCOCCOc1ccc(N(C(=O)CCl)C(C(=O)NCCc2ccccc2)c2cccs2)cc1Cl (stereo unspecified)	1300
Cc1onc(C(=O)N2CCN(C(c3ccc(Cl)cc3)c3ccc(Cl)cc3)CC2)c1[N+](=O)[O-]	544
CCC(=O)N(c1ccc(OC)c(Cl)c1)C(C(=O)NCCc1ccccc1)c1cccs1 (stereo unspecified)	> 70000
CC(C)(C)OC(=O)NCCOCCOCCOc1ccc(N(C(=O)CCl)C(C(=O)NCCc2ccccc2)c2cccs2)cc1Cl (stereo unspecified)	287
